# Measured values from US6541978B1, “Method, system and device for producing signals from a substance biological and/or chemical activity” (priority 1998, dated 2003).
# Several values for one entry are separate records, joined by “and”; a condition that tells them apart may be missing. Equal entries are not always repeated.
# What was measured:
# [1] = test system: skin of a guinea-pig; test: Guinea-pig cutaneous test (Evans blue marks); assay type: in vivo; conditions: 0.1 ml ponderal solution at 10^−6M injected under the skin; single injections
# Text: As an example, with reference to FIG. 4, a presentation is given below of the test known under the name of guinea-pig cutaneous test and described in chapter 11 (p.346-351) in the second edition of “Immunology” edited by Jean-Francois Bach, coll. John Wiley & Sons; or further in the 3rd edition of “The handbook of Experimental Immunology” edited by D. M. Weir, coll. Blackwell, Ch. 21 “Passive cutaneous anaphylaxis (PCA)” by W. E. Brocklehurst; or further in the work edited by Williams & Chase entitled “Methods in IMMUNOLOGY and IMMUNOCHEMISTRY”—Vol. 5—Ch. 19 “Anaphylaxis”.
# The guinea-pig is used when still alive, and is given a n intravenous injection of a blue colorant (Evans blue—Sigma E 2129) which fixes on the blood albumin.
# The test is carried out by injecting under the skin of the animal prepared in this way, 0.1 ml of the solution whose activity is to be controlled. Nextone measures the diameter of the blue marks appearing around the points of injection. In order to do this the skin is scanned, and then the bitmap image file is recorded. Finally the sizes of the blue marks due to the reaction are evaluated.
# In the example described, a control was carried out of the presence of signals characteristic of the biological activity of the acetylcholine neuromediator (ACh; Sigma A2661) in solution in a physiological solution, by analysing the effects o n the skin of a guinea-pig: […]
# [2] = test system: isolated guinea-pig heart; test: Perfused isolated guinea-pig heart (Langendorff), injections of the substances; conditions: injection of substance 10^−6M
# Text: As an example of a biological control system, an d referring to FIG. 2, a test will be described below derived from that known under the test name of a perfused isolated guinea-pig heart (or Langendorff experiment) and whose process is described in the work entitled: “Methods in Immunology and Immunochemistry” published by Williams and Chase, Academic Press 1976, particularly page 68; or further in the work entitled: “L'experimentation animate en cardiologie” INSERM Médecine-Science—Coll. Flammarion—Author Bernard […]—particularly Ch. 3.1 p.81 “Organe Isolé—Coceur Isolé selon Langendorff—Montage à pression coronaire constante”; or further in the work entitled “The isolated perfused Heart according to Langendorff” H. J. Döiring, H. Dehnart—Biomesstechnik—Verlag March GmbH, D-7806 March. In FIG. 2 one recognises the diagram known from the Langendorff experiment. The equipment described in these works has been completed by a transducer in the form of a bobbin 60 of a varnished copper wire of diameter 0.5 mm, with a diameter of 110 mm, a length of 40 mm and with an impedance of 4 ohms.
# The fraction collector collected the tubes making it possible to measure the debit of the guinea-pig heart at the rate of 1 tube per minute. The buffer solution crossing the heart had the following composition: CaCl 2 mM, NaHCO3 25 mM, NaCl 118 mM, MgSO4 1.2 mM, KHPO4 1.2 mM, Glucose 11 mM, Pyruvate 2 mM.
Compound,Dia. in mm (diameter of the blue marks around the points of injection) [1],quantity of the buffer solution recuperated in the collector tubes ([2]; time 1 min) [mL],quantity of the buffer solution recuperated in the collector tubes ([2]; time 2 min) [mL],quantity of the buffer solution recuperated in the collector tubes ([2]; time 3 min) [mL],quantity of the buffer solution recuperated in the collector tubes ([2]; time 4 min) [mL],quantity of the buffer solution recuperated in the collector tubes ([2]; time 5 min) [mL],quantity of the buffer solution recuperated in the collector tubes ([2]; time 6 min) [mL],quantity of the buffer solution recuperated in the collector tubes ([2]; time 7 min) [mL],quantity of the buffer solution recuperated in the collector tubes ([2]; time 8 min) [mL],quantity of the buffer solution recuperated in the collector tubes ([2]; time 9 min) [mL],quantity of the buffer solution recuperated in the collector tubes ([2]; time 10 min) [mL],quantity of the buffer solution recuperated in the collector tubes ([2]; time 11 min) [mL],quantity of the buffer solution recuperated in the collector tubes ([2]; time 12 min) [mL],quantity of the buffer solution recuperated in the collector tubes ([2]; time 13 min) [mL],quantity of the buffer solution recuperated in the collector tubes ([2]; time 14 min) [mL],quantity of the buffer solution recuperated in the collector tubes ([2]; time 15 min) [mL],quantity of the buffer solution recuperated in the collector tubes ([2]; time 20 min) [mL],quantity of the buffer solution recuperated in the collector tubes ([2]; time 25 min) [mL],quantity of the buffer solution recuperated in the collector tubes ([2]; time 30 min) [mL]
"CC(=O)OCC[N+](C)(C)C [ACh, acetylcholine]",23 mm and 25 mm and 21 mm and 18 mm,,,,,,,,,,,,,,,,,,
Cn1c(=O)c2c(ncn2C)n(C)c1=O [caffeine],,5.1,5.0,5.0,4.9,4.6,4.2,4.0,4.1,4.0,4.2,4.1,4.3,4.4,4.5,4.5,4.6,4.5,4.5
"CNc1ccc2oc(C[C@H]3O[C@@]4(CC[C@H]3C)O[C@H]([C@H](C)C(=O)c3ccc[nH]3)[C@H](C)C[C@H]4C)nc2c1C(=O)O [ionophoretic-calcium, ionophoretic-calcium A 23187]",,5.1,5.0,5.2,5.0,4.9,5.4,5.6,6.2,6.4,6.4,6.2,6.0,6.0,5.9,6.0,5.7,5.4,5.2
